Test results: patent US20070060478A1, “Herbicidal mixtures comprising a safener” (BASF AKTIENGESELLSCHAFT, priority 2005, published 2007)

Assays:
Type in all cases: in vivo
Conditions in all cases: 50 g/ha, applied alone
wild oat = assay: post-emergence application, control of unwanted plants (damage scale 0% to 100%)
Source text: (§1) The mixtures according to the invention were applied pre- or post-emergence (foliar treatment). The herbicidal compounds of component B) and of component C) were applied in the formulation in which they are present as commercially available product.
(§2) In the case of the field trials, application was effected with the aid of a mobile plot sprayer.
(§3) The test period extended over 3 to 8 weeks, and the stands were also observed at later points in time.
(§4) Damage by the herbicidal compositions was evaluated with reference to a scale of 0% to 100% in comparison with untreated control plots. 0 means no damage and 100 means complete destruction of the plants.

durum wheat = assay: post-emergence application, damage to crop plants (damage scale 0% to 100%)
Source text: as §1, §2, §3, §4

green foxtail = assay: post-emergence application, control of unwanted plants (damage scale 0% to 100%)
Source text: as §1, §2, §3, §4

pigweed = assay: as above
Source text: as §1, §2, §3, §4

spring wheat = assay: post-emergence application, damage to crop plants (damage scale 0% to 100%)
Source text: as §1, §2, §3, §4

**Q.** `Cc1c(C(=O)c2cnn(C)c2O)ccc(S(C)(=O)=O)c1C1=NOCC1` [4-[2-methyl-3-(4,5-dihydro-isoxazol-3-yl)-4-methylsulfonyl-benzoyl]-1-methyl-5-hydroxy-1H-pyrazole] was tested. Which “control of unwanted plants” value (wild oat) did it give?
**A.** in an excellent manner

**Q.** And the “damages in crop plants” value (durum wheat)?
**A.** causes damages

**Q.** And the “control of unwanted plants” value (green foxtail)?
**A.** in an excellent manner

**Q.** What about the “control of unwanted plants” value (pigweed) of the same compound?
**A.** in an excellent manner

**Q.** What about the “damages in crop plants” value (spring wheat) of the same compound?
**A.** causes damages
